Assay results from ChEMBL document CHEMBL3879901, “Substituted isoquinolin-1(2H)-ones, and methods of use thereof” (2012).
Active and inactive are the calls of the source. The calls are words filed in the database; no cut-off is given here.

Key:
[1] = system: Rattus norvegicus; assay: Antiarthritic activity in type 2 collagen-induced po dosed Lewis rat arthritis model assessed as reduction in bone resorption in knee administered every 12 hrs for 16 days measured on day 17 of post last dose by toluidine blue staining-based assay; type: functional, organism-based
[2] = system: Rattus norvegicus; assay: Antiarthritic activity in type 2 collagen-induced Lewis rat arthritis model assessed as reduction in serum anti-type 2 collagen levels at 60 mg/kg, po administered every 12 hrs for 16 days measured on day 17 of post last dose by ELISA relative to control; type: functional; parameters: scale not given: the % may be the effect or the level left
[3] = system: Rattus norvegicus; assay: Antiarthritic activity in type 2 collagen-induced Lewis rat arthritis model assessed as reduction in ankle diameter at 10 to 60 mg/kg, po administered every 12 hrs for 16 days measured on day 9 of compound dosing to day 17 of post last dose relative to vehicle-treated control; type: functional, organism-based
[4] = biological target: PI3K p110 beta/p85 alpha (Homo sapiens, UniProt P42338); assay: Inhibition of N-terminal His6-tagged recombinant full-length human p110beta/untagged recombinant full length p85alpha expressed in baculovirus infected Sf21 cells using phosphatidylinositol as substrate in presence of gamma-32P-ATP after 5 mins by thin layer chromatographic method
[5] = system: Rattus norvegicus; assay: Antiarthritic activity in type 2 collagen-induced po dosed Lewis rat arthritis model assessed as reduction in knee inflammation administered every 12 hrs for 16 days measured on day 17 of post last dose by toluidine blue staining-based assay; type: functional, organism-based
[6] = species: Homo sapiens; assay: Inhibition of allergen-induced activation of basophilic granulocytes in human whole blood preincubated for 20 mins followed by allergen induction measured after 20 mins using sub micromolar range of compound by basotest assay; type: functional, tissue-based
[7] = system: Rattus norvegicus; assay: Antiarthritic activity in type 2 collagen-induced po dosed Lewis rat arthritis model assessed as reduction in knee pannus administered every 12 hrs for 16 days measured on day 17 of post last dose by toluidine blue staining-based assay; type: functional, organism-based
[8] = system: Rattus norvegicus; assay: Antiarthritic activity in type 2 collagen-induced po dosed Lewis rat arthritis model assessed as reduction in cartilage damage in knee administered every 12 hrs for 16 days measured on day 17 of post last dose by toluidine blue staining-based assay; type: functional, organism-based
[9] = biological target: Phosphatidylinositol 3-kinase (Mus musculus) (UniProt P26450+P42337); assay: Inhibition of PI3K in mouse unfractionated splenocytes assessed as decrease in anti-CD3-stimulated Akt phosphorylation at S473 preincubated for 15 mins followed by anti-CD3 stimulation measured after 5 to 15 mins by phosflow method; type: cell-based
[10] = biological target: RAC-alpha serine/threonine-protein kinase (Mus musculus) (UniProt P31750); assay: […] of anti-CD3-stimulated Akt phosphorylation in mouse unfractionated splenocytes preincubated for 15 mins followed by anti-CD3 stimulation measured after 5 to 15 mins by phosflow method; type: cell-based
[11] = biological target: RAC-alpha serine/threonine-protein kinase (Homo sapiens) (UniProt P31749); assay: […] of anti-CD3-stimulated Akt phosphorylation in human PBMC preincubated for 15 mins followed by anti-CD3 stimulation measured after 5 to 15 mins by phosflow method
[12] = biological target: PI3-kinase class I (Homo sapiens) (UniProt P27986+P42338+P48736+P42336+O00459+O00329+Q8WYR1+Q92569); assay: Inhibition of PI3K in human PBMC assessed as decrease in anti-CD3-stimulated Akt phosphorylation at S473 preincubated for 15 mins followed by anti-CD3 stimulation measured after 5 to 15 mins by phosflow method

PI3K p110 beta/p85 alpha, sequence (P27986 whole entry): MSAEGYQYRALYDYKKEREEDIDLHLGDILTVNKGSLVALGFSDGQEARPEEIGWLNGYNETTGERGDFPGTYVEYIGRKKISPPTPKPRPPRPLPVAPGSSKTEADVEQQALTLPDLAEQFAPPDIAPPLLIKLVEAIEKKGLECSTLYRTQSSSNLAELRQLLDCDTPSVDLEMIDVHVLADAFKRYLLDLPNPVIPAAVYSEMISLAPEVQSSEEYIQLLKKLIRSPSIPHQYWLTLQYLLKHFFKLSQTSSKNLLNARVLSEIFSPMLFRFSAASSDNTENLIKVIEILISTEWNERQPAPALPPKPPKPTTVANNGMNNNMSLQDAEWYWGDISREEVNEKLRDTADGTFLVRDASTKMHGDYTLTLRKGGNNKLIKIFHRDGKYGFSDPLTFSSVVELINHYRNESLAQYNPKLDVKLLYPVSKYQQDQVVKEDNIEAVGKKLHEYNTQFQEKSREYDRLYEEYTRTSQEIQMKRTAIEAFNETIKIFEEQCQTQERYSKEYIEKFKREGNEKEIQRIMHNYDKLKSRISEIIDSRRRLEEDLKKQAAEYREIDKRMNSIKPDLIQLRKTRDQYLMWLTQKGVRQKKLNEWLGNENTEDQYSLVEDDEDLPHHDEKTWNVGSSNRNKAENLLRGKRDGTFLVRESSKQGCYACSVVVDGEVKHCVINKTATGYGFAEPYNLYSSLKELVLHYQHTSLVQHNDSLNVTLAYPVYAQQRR
PI3K p110 beta/p85 alpha, sequence (P42338 whole entry): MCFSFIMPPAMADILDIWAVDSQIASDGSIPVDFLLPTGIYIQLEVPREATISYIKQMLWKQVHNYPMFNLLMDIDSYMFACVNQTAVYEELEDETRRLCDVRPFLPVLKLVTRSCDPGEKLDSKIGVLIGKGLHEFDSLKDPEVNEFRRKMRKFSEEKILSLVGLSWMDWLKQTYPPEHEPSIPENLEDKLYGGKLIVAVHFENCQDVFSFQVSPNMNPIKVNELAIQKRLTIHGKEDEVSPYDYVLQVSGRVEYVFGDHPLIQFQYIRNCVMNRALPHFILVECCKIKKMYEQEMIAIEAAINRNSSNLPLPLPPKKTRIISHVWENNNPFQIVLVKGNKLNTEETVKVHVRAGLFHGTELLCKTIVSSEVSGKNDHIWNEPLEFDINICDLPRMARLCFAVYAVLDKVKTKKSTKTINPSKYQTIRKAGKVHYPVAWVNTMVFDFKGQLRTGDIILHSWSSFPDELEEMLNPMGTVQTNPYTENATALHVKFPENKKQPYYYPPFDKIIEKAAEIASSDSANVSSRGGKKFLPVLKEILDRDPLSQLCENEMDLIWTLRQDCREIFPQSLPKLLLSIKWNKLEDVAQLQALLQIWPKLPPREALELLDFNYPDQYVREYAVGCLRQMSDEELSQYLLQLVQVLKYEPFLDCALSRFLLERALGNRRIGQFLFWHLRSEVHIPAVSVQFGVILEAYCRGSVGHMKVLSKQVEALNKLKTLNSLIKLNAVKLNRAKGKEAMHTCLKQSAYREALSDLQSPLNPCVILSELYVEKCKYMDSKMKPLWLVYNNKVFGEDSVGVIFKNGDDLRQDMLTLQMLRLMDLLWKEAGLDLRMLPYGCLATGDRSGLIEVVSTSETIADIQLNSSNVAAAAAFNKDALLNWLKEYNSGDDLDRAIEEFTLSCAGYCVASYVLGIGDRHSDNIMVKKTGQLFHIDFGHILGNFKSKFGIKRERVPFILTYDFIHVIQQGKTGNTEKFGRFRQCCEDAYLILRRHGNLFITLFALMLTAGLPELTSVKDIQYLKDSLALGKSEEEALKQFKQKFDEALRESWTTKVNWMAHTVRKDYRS
RAC-alpha serine/threonine-protein kinase (Homo sapiens), sequence (P31749 whole entry): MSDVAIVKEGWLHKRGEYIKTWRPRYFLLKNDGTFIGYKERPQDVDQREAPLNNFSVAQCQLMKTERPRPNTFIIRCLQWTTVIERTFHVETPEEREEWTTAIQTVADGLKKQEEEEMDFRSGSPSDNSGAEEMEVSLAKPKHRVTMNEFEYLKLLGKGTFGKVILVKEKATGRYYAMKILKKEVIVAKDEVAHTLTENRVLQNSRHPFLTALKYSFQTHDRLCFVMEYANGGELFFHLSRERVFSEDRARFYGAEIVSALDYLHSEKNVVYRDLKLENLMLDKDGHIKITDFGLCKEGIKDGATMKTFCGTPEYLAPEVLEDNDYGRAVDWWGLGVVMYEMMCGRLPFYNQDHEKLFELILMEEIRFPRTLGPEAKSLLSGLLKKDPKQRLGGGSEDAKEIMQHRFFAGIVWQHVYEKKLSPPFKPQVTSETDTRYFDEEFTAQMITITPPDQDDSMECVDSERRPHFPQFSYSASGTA
Phosphatidylinositol 3-kinase (Mus musculus), sequence (P26450 whole entry, looked up): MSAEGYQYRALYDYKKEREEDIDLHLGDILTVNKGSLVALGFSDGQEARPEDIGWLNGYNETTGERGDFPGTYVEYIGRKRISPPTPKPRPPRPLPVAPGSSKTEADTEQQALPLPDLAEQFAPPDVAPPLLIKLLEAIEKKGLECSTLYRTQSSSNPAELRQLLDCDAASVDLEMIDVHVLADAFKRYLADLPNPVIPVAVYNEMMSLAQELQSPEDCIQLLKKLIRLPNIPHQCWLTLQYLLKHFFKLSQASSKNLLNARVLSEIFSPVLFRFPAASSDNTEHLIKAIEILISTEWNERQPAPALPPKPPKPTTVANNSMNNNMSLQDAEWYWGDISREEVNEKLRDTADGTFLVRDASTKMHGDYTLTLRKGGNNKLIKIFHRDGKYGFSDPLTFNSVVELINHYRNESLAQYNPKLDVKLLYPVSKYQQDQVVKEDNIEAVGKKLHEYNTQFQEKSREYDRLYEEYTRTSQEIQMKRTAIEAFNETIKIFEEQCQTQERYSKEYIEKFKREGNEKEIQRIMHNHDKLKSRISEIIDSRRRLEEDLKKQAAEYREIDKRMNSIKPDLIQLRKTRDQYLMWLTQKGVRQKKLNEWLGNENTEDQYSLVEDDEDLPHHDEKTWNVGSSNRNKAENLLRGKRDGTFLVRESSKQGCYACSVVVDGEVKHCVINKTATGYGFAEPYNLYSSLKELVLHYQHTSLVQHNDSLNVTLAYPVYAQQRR
Phosphatidylinositol 3-kinase (Mus musculus), sequence (P42337 whole entry, looked up): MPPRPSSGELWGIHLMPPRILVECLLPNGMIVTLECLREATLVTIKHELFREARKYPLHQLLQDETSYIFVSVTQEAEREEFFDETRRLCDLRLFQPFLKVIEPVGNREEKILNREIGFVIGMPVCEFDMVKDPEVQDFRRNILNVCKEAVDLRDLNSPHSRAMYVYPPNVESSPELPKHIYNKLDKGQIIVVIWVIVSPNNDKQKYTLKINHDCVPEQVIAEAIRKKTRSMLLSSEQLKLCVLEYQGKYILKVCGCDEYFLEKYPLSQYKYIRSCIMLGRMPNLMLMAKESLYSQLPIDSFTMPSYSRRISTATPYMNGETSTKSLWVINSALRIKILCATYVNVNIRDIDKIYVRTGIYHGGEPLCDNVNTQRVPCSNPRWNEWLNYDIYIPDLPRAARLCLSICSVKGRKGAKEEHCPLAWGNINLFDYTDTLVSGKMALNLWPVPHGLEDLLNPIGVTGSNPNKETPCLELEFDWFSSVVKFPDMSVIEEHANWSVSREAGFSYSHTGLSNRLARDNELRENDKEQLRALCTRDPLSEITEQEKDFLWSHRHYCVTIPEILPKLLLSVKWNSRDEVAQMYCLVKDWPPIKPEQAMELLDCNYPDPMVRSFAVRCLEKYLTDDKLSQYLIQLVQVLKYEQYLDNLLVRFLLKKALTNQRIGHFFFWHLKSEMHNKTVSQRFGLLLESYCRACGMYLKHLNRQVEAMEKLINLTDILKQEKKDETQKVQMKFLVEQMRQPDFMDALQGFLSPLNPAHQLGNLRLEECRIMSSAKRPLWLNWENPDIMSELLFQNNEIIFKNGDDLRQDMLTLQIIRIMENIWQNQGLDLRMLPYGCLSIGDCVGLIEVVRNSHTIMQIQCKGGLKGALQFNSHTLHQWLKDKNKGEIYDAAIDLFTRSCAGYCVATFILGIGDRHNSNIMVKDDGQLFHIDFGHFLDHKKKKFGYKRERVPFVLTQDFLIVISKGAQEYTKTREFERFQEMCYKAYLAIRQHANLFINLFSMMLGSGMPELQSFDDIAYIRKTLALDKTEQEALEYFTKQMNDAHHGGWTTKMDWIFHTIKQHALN
RAC-alpha serine/threonine-protein kinase (Mus musculus), sequence (P31750 whole entry): as the sequence (P31749 whole entry) above, with S2N, A50S, T100A, K112R, E117T, K389T, G410N, H415D counted along it

Cc1ccccc1-n1c(Cn2nc(-c3cc(O)cc(F)c3)c3c(N)ncnc32)cc2cccc(C)c2c1=O
Activity [1]: Dose-dependent effect | Activity [2]: 24% | Activity [3]: Active | IC50 [4]: < 1000 nM | Activity [5]: Dose-dependent effect | inhibition [6]: Active | Activity [7]: Dose-dependent effect | Activity [8]: Dose-dependent effect

CO[C@H]1C[C@@H]2CC[C@@H](C)[C@@](O)(O2)C(=O)C(=O)N2CCCC[C@H]2C(=O)O[C@H]([C@H](C)C[C@@H]2CC[C@@H](O)[C@H](OC)C2)CC(=O)[C@H](C)/C=C(\C)[C@@H](O)[C@@H](OC)C(=O)[C@H](C)C[C@H](C)/C=C/C=C/C=C/1C
inhibition [9]: Active | Activity [10]: Active | Activity [11]: Active | inhibition [12]: Active
